Assay results from patent publication US4590264A, “Lipoglycosides and process of extracting same” (Wofor AG, priority 1983, dated 1986).
Entries after “also recorded” stand apart in the source; their conditions may differ.

How the values were obtained:
Solubility in solvents = type: physicochemical; conditions: solvents as named in the value
[1] = test system: tumor cells derived from human carcinoma of the nasopharynx (KB cells); test: KB cell assay: cytotoxicity, cell count (alive, dead) after 48 h incubation; type: cell-based; conditions: for Cell count after incubation, dead / Cell count after incubation, alive: cell count before incubation = 100, Table 3; for Cell count after incubation, dead: control 0; for Cell count after incubation, alive: control 200
Method: The plant is subjected to extraction in various solvents having different polarities (i.e. dielectric constants) at room temperature for a period of from 1 to 10 days. By room temperature, it is meant from about 20° C. to about 25° C. The extract-containing solvents are each tested for their biological activity. As a measure of biological activity, the cytotoxicity of the extracts against tumor cells derived from human carcinoma of the nasopharynx (KB cells) is measured. Those extracts which show the capability of killing KB cells are fractionated to yield the compounds of the present invention.
A sample of cells was taken from a stock supply furnished by a well known commercial laboratory. The primary culture was Minimal Essential Medium (MEM), Flo Laboratories, 10% fetal calf serum. Trypsinization was conducted with 0.2% trypsin in isotonic NaCl. The cells were counted with 0.1% Tripan Blue. The cells were subcultured in a 5 to 1 split in microtiter plates at 2×10^5 cells per well. The volume of culture placed in each well was 1 ml. The cells were counted at three locations before the addition of the extract to yield an average cell count.
Each of the extracts to be tested was added to the cells at a specific concentration as an ethanolic solution. The cells were incubated at 37° C. for 48 hours. Thereafter, the cells were again counted at three locations to provide an average cell count.
As a control, a cell sample was incubated for the same period in culture medium and without the addition of any plant extract.
Each of the extracts obtained above was tested for its effect on KB cells. The cell culture assay protocol described above was used.

| Compound | Solubility (in words) (Solubility in solvents) | Cell count after incubation, dead ([1]; 10 μg/ml) | Cell count after incubation, alive ([1]; 10 μg/ml) | Cell count after incubation, dead ([1]; 100 μg/ml) | Cell count after incubation, alive ([1]; 100 μg/ml) | activity against KB cells / antitumor activity (in words) [1] |
| --- | --- | --- | --- | --- | --- | --- |
| CCC1CCCCCCCCCCCCCCCCCCC(=O)OC[C@H]2O[C@@H](O1)[C@H](O)[C@@H](OC(C)=O)[C@@H]2O (stereo partly shown) [Compound II] | soluble in CH2 Cl2 and benzene but insoluble in methanol and ether; also recorded: Insoluble in methanol, ethyl ether | 0.5 | 104.5 | 0 | 0 | active; also recorded: possess antitumor properties |
| CCC1CCCCCCCCCCCCCCCCCCC(=O)OC[C@H]2O[C@@H](O1)[C@H](OC(C)=O)[C@@H](O)[C@@H]2O (stereo partly shown) [Compound I] | Soluble in CHCl3, methanol; also recorded: Sparingly soluble in acetyl ethyl ether and acetone; also recorded: Insoluble in ethyl ether and petroleum ether | 0 | 15 | 0 | 0 | active; also recorded: possess antitumor properties |
| CCC(O)CCCCCCCCCCCCCCCCCCC(=O)OC (stereo not shown) [Example 5, 20-hydroxydocosanoic acid methyl ester] | soluble in n-hexane, benzene and chloroform but insoluble in methanol and acetone |  |  |  |  |  |
